Reference: US20180362654A1, “Methods for Reducing or Preventing Growth of Tumors Resistant to EGFR and/or ErbB3 Blockade” (Regeneron Pharmaceuticals, Inc., priority 2015, published 2018)

Assays:
ERK = ERK activation by western blot (phospho-ERK); format: cell-based, human; conditions: REGN1400 5 μg/ml, REGN955 10 μg/ml, AZD4547 25 nM
Method: (§1) For analysis of cell signaling by western blot, tumor cells were treated with the following reagents: ErbB3 blocking REGN1400, EGFR blocking antibody REGN955, MEK inhibitor GSK1120212 (Selleckchem), FGFR TKI AZD4547 (Selleckchem), MET TKI PHA665752 (Sigma), PI3K inhibitor BYL719, human NRG1 (R&D Systems), human EGF (R&D Systems). Following treatment, cell lysates were subjected to western blot with the following antibodies: phospho-ErbB3 (Cell Signaling Technology (CST), cat. #4561), EGFR (CST, cat. #2646), phospho-EGFR (CST, cat. #2234), Akt (CST, cat. #9272), phospho-Akt (CST, cat. #4060), ERK (CST, cat. #4695), phospho-ERK (CST, cat. #4370), MET (CST, cat. #8198), phospho-MET (CST, cat. #3077), ErbB3 (CST, cad.#4754), phospho-FGFR (CST, cat. #3476).

AKT = AKT activation by western blot (phospho-AKT); format: cell-based, human; conditions: REGN1400 5 μg/ml, REGN955 10 μg/ml, AZD4547 25 nM
Method: as §1

FGFR3 = FGFR3 phosphorylation by anti-phosphotyrosine immunoprecipitation and western blot; format: cell-based, human; conditions: FaDu V2 cells; 25 nM AZD4547; 1 hour
Method: FIGS. 4A-4F provide evidence that FGFR3 is activated in FaDu resistant variant cell lines and maintains ERK signaling upon EGFR blockade. […] Active RTKs of note are boxed and labeled. The unlabeled spots on the corners of the membranes are positive controls. […] The presence of FGFR3 and Src in the immunoprecipitates was assessed by western blot. […] Following treatment, cell lysates were subjected to western blot with antibodies against phospho-ERK, ERK, phospho-MET and MET. […] Following treatment, cell lysates were subjected to immunoprecipitation with anti-phosphotyrosine antibody 4G10 conjugated to agarose beads. The presence of FGFR3 and Src in the immunoprecipitates was assessed by western blot. […] Following treatment, cell lysates were subjected to western blot with antibodies against phospho-ERK, ERK, phospho-AKT and AKT.
To assess the tyrosine phosphorylation status of FGFR3-TACC3 fusion proteins in FaDu V1 and V2 cell lines, cells growing in 10 cm dishes were lysed in 1 ml of buffer (150 mM NaCl/20 mM Tris, pH 7.5/1% Triton X-100) containing Halt Protease and Phosphatase Inhibitor Cocktail (Thermo Scientific). […]

NCI-H1975 cells = assay: Tumor cell growth assay (MTS), NCI-H1975 cells expressing FGFR3-TACC3 fusion proteins; format: cell-based, human; conditions: 72 hours, 50 nM AZD9291
Method: (§2) The bar graphs show the relative cell growth in each treatment group, as determined by MTS assay. Error bars show the standard deviation, n=8. […] The bar graphs show the relative cell growth in each treatment group, as determined by MTS assay. Error bars show the SD, n=8. FIGS. 11C-11D respectively show SNU1076 or Detroit 562 cells expressing wild-type FGFR3 or FGFR3-TACC3 fusion proteins that were grown for 72 hours in the presence of vehicle or 5 μM PI3K inhibitor BYL719. The bar graphs show the relative cell growth in each treatment group, as determined by MTS assay. Error bars show the standard deviation, n=8. […] Cell lysates were prepared and subjected to western blot with antibodies against phospho-ERK, ERK, phospho-AKT, or AKT.
(§3) To assess tumor cell growth, 2-3,000 cells were plated in 96-well plates (n=8 replicate wells per treatment group) in serum-containing medium. The day after plating, the baseline (0 hour) cell number was determined by MTS assay using the CellTiter96 Aqueous One Solution Cell Proliferation Assay (Promega). […] At 72 hours, the final cell number was determined by MTS assay. The relative cell growth for each treatment group was determined by subtracting the baseline MTS reading from the final MTS reading. […]

SNU1076 cells = assay: Tumor cell growth assay (MTS), SNU1076 cells expressing FGFR3-TACC3 fusion proteins; format: cell-based, human; conditions: 72 hours, 5 μM BYL719
Method: as §2, §3

Detroit 562 cells = assay: Tumor cell growth assay (MTS), Detroit 562 cells expressing FGFR3-TACC3 fusion proteins; format: cell-based, human; conditions: 72 hours, 5 μM BYL719
Method: as §2, §3

MET = molecular target: T1, MET (Homo sapiens, UniProt P08581); assay: MET phosphorylation by western blot; format: cell-based; conditions: FaDu V2 cells; 100 nM PHA665752; 30 minutes
T1 construct: Fadu V2 cells that were treated for 30 minutes with control antibody; endogenous in cells
T1 sequence (P08581 25-1390): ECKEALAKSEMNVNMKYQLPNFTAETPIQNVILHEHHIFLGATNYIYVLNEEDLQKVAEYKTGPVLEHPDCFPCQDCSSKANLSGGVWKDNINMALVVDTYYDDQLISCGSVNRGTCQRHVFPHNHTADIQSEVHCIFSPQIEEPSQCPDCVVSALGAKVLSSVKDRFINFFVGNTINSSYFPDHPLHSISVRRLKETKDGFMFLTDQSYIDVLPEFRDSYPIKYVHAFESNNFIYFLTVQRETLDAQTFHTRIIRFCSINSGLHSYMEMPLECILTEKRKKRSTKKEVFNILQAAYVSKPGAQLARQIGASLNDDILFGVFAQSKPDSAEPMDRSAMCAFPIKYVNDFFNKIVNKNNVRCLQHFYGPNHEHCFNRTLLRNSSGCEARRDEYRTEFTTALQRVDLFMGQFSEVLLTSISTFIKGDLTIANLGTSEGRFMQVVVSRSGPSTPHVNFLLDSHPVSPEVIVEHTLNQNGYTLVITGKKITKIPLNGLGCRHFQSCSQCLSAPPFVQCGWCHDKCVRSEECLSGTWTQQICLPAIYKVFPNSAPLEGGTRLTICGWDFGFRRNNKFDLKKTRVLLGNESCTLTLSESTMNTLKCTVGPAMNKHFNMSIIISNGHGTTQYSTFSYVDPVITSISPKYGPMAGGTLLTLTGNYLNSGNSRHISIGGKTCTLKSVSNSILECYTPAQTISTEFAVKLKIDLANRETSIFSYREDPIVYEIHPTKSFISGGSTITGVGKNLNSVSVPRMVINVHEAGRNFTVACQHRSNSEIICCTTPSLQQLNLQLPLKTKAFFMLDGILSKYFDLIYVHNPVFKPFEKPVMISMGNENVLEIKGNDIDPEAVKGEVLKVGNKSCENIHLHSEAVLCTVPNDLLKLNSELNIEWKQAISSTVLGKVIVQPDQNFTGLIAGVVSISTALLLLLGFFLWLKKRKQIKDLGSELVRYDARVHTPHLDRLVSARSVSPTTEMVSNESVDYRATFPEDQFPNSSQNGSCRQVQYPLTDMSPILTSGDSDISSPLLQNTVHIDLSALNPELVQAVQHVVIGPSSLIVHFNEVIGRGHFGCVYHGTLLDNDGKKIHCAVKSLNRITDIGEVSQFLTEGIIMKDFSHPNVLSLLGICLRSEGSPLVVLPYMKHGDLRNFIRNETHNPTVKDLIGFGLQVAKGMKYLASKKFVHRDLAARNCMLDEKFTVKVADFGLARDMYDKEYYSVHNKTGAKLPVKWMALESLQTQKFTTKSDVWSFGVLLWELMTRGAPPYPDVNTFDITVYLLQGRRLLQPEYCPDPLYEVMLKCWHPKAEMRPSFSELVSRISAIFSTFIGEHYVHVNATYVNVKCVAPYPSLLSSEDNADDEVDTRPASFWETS

[1] = FaDu V2 cells, GSK1120212 100 nM, PHA665752 100 nM

`COc1cc(CCc2cc(NC(=O)c3ccc(N4CC(C)NC(C)C4)cc3)n[nH]2)cc(OC)c1` (stereo not shown) [AZD4547] was tested. Which “inhibition of ERK activation” value (ERK; FaDu V1 cells) did it give?
Its value is “either no effect or a partial effect”.

What about the “inhibition of ERK activation” value (ERK; [1]) of the same compound?
The value was “either no effect or a partial effect”.

And the “inhibition of AKT activation” value (AKT; FaDu V1 cells)?
Its value is “no effect on AKT activation”.

And the “inhibition of AKT activation” value (AKT; FaDu V2 cells, GSK1120212 100 nM)?
The value was “no effect on AKT activation”.

And the “inhibition of FGFR3 phosphorylation” value (FGFR3)?
Its value is “completely blocked FGFR3 phosphorylation”.

Which “growth inhibition in cells expressing FGFR3-TACC3 fusion proteins” value (“growth inhibition” below) (NCI-H1975 cells) does the source give for `C=CC(=O)Nc1cc(Nc2nccc(-c3cn(C)c4ccccc34)n2)c(OC)cc1N(C)CCN(C)C` [AZD9291] here?
The value was “promote resistance”.

With `Cc1nc(NC(=O)N2CCC[C@H]2C(N)=O)sc1-c1ccnc(C(C)(C)C(F)(F)F)c1` [BYL719, alpelisib] as the compound, how does the “growth inhibition” value (SNU1076 cells) read?
The value was “neither of the FGFR3-TACC3 fusion proteins was able to confer substantial resistance”.

What about the “growth inhibition” value (Detroit 562 cells) of the same compound?
The value was “neither of the FGFR3-TACC3 fusion proteins was able to confer substantial resistance”.

For `Cc1[nH]c(/C=C2\C(=O)Nc3ccc(S(=O)(=O)Cc4c(Cl)cccc4Cl)cc32)c(C)c1C(=O)N1CCC[C@@H]1CN1CCCC1` [PHA665752], which “inhibition of ERK activation” value (ERK; [1]) is on record?
Its value is “did not inhibit ERK activation”.

What about the “inhibition of MET phosphorylation” value (MET) of the same compound?
Its value is “completely blocking MET phosphorylation”.
